Experimental data taken from patent publication US20030229063A1, “Use of 4-hydroxytestosterone to lower estrogen levels in humans” (priority 2002, published 2003).

Key:
aromatase enzyme complex = target: T1, aromatase enzyme complex (Homo sapiens, UniProt P11511); settings: irrevocably attaches the enzyme; cited from earlier work
T1 sequence (P11511 1-503): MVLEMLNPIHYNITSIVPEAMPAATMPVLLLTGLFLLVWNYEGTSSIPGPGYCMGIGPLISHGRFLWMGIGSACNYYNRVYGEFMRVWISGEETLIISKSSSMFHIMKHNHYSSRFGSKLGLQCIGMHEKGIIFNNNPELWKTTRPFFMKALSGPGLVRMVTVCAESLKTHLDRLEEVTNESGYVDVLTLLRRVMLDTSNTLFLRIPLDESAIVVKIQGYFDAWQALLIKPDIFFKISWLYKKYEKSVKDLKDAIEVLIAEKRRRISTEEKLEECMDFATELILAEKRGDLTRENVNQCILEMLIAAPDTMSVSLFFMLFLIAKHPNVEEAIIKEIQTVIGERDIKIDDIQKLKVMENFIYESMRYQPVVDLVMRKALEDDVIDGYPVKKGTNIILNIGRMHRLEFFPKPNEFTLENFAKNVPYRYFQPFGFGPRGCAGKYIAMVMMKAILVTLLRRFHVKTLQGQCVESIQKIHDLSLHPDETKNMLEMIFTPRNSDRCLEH

aromatase [1] = target: T2, aromatase (Homo sapiens, UniProt P11511); test: clinical study of peroral aromatase inhibition in man; type: in vivo; design: from tissue; host or cells: in vivo, human subjects (whole body); settings: in humans
T2 sequence (P11511 1-503): T1 sequence (P11511 1-503)

aromatase [2] = target: T2, aromatase; settings: androstenedione vs testosterone as aromatase substrates; cited from earlier work

C[C@]12CCC(=O)C(O)=C1CC[C@@H]1[C@@H]2CC[C@]2(C)C(=O)CC[C@@H]12 [4-hydroxyandrostenedione]
mode of aromatase inhibition (aromatase enzyme complex): suicide substrate for the aromatase enzyme complex

C[C@]12CC[C@H]3[C@@H](CCC4=C(O)C(=O)CC[C@@]43C)[C@@H]1CC[C@@H]2O [4-hydroxytestosterone, 4,17b-dihydroxy-4-androstene-3-one]
efficacy as an inhibitor of aromatase compared with 4-hydroxyandrostenedione (aromatase [1]): equally high level of efficacy in humans as an inhibitor of aromatase

C[C@]12CCC(=O)C=C1CC[C@@H]1[C@@H]2CC[C@]2(C)C(=O)CC[C@@H]12 [androstenedione]
ability to aromatize to the corresponding estrogen (aromatase [2]): both hormones aromatized with equal efficacy

C[C@]12CC[C@H]3[C@@H](CCC4=CC(=O)CC[C@@]43C)[C@@H]1CC[C@@H]2O [testosterone]
ability to aromatize to the corresponding estrogen (aromatase [2]): both hormones aromatized with equal efficacy
